Source: patent US9409884B2 (Rigel Pharmaceuticals, Inc., priority 2012, dated 2016)

These molecules were tested against AMPK (assay: AMPK activation, enzyme-linked immunosorbent assay). Conditions: Table 9, compounds of Table 2.
Assay type: biochemical
Method in brief: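 AMPK activation by test compounds was measured by enzyme-linked immunosorbent assay.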

SMILES	EC50
O=C(NC1CCN(C(=O)c2ccncc2)CC1)c1ccc2[nH]c3c(c2c1)CN(Cc1ccc(C(F)(F)F)cc1)CC3 [Compound 2-51, N-(1-isonicotinoylpiperidin-4-yl)-2-(4-(trifluoromethyl)benzyl)-2,3,4,5-tetrahydro-1H-pyrido[4,3-b]indole-8-carboxamide]	500 to 1000 nM
Cn1cnc(CN2CCC(NC(=O)c3ccc4[nH]c5c(c4c3)CN(Cc3ccc(C(F)(F)F)cc3)CC5)CC2)c1 [Compound 2-53, N-(1-((1-methyl-1H-imidazol-4-yl)methyl)piperidin-4-yl)-2-(4-(trifluoromethyl)benzyl)-2,3,4,5-tetrahydro-1H-pyrido[4,3-b]indole-8-carboxamide]	10000 to 50000 nM
O=C(NC1CCN(Cc2cocn2)CC1)c1ccc2[nH]c3c(c2c1)CN(Cc1ccc(C(F)(F)F)cc1)CC3 [Compound 2-54, N-(1-(oxazol-4-ylmethyl)piperidin-4-yl)-2-(4-(trifluoromethyl)benzyl)-2,3,4,5-tetrahydro-1H-pyrido[4,3-b]indole-8-carboxamide]	< 500 nM

Results, then the molecule that gave them:

EC50	SMILES
> 100000 nM	NC(=O)c1ccc(CN2CCc3[nH]c4ccc(C(=O)NC5CCN(C(=O)c6ccncc6)CC5)cc4c3C2)cc1 [Compound 2-46, 2-(4-carbamoylbenzyl)-N-(1-isonicotinoylpiperidin-4-yl)-2,3,4,5-tetrahydro-1H-pyrido[4,3-b]indole-8-carboxamide]
10000 to 50000 nM	NC(=O)c1ccc(CN2CCc3[nH]c4ccc(C(=O)NC5CCN(Cc6ccc(C(F)(F)F)cc6)CC5)cc4c3C2)cc1 [Compound 2-47, 2-(4-carbamoylbenzyl)-N-(1-(4-(trifluoromethyl)benzyl)piperidin-4-yl)-2,3,4,5-tetrahydro-1H-pyrido[4,3-b]indole-8-carboxamide]
> 100000 nM	NC(=O)c1ccc(CN2CCc3[nH]c4ccc(C(=O)NC5CCN(Cc6ccc(F)cc6)CC5)cc4c3C2)cc1 [Compound 2-48, 2-(4-carbamoylbenzyl)-N-(1-(4-fluorobenzyl)piperidin-4-yl)-2,3,4,5-tetrahydro-1H-pyrido[4,3-b]indole-8-carboxamide]
> 100000 nM	NC(=O)c1ccc(CN2CCC(NC(=O)c3ccc4[nH]c5c(c4c3)CN(Cc3ccc(C(N)=O)cc3)CC5)CC2)cc1 [Compound 2-49, 2-(4-carbamoylbenzyl)-N-(1-(4-carbamoylbenzyl)piperidin-4-yl)-2,3,4,5-tetrahydro-1H-pyrido[4,3-b]indole-8-carboxamide]
< 500 nM	O=C(NC1CCN(Cc2ccncc2)CC1)c1ccc2[nH]c3c(c2c1)CN(Cc1ccc(C(F)(F)F)cc1)CC3 [Compound 2-50, N-(1-(pyridin-4-ylmethyl)piperidin-4-yl)-2-(4-(trifluoromethyl)benzyl)-2,3,4,5-tetrahydro-1H-pyrido[4,3-b]indole-8-carboxamide]
1000 to 5000 nM	NC(=O)c1ccc(CN2CCC(NC(=O)c3ccc4[nH]c5c(c4c3)CN(Cc3ccc(C(F)(F)F)cc3)CC5)CC2)cc1 [Compound 2-52, N-(1-(4-carbamoylbenzyl)piperidin-4-yl)-2-(4-(trifluoromethyl)benzyl)-2,3,4,5-tetrahydro-1H-pyrido[4,3-b]indole-8-carboxamide]

Same assay, conditions: Table 10, compounds of Table 3

EC50	SMILES
< 100 nM	CC(C)(C)OC(=O)N1CCC(NC(=O)c2nc3ccc(OC4CCN(c5ccc(C(F)(F)F)cc5)CC4)cc3o2)CC1 [Compound 3-1, tert-butyl 4-(6-(1-(4-(trifluoromethyl)phenyl)piperidin-4-yloxy)benzo[d]oxazole-2-carboxamido)piperidine-1-carboxylate]
< 100 nM	N#Cc1ccc(CN2CCC(NC(=O)c3nc4ccc(OC5CCN(c6ccc(C(F)(F)F)cc6)CC5)cc4o3)CC2)cc1 [Compound 3-2, N-(1-(4-cyanobenzyl)piperidin-4-yl)-6-(1-(4-(trifluoromethyl)phenyl)piperidin-4-yloxy)benzo[d]oxazole-2-carboxamide]
< 100 nM	O=C(NC1CCN(Cc2ccncc2)CC1)c1nc2ccc(OC3CCN(c4ccc(C(F)(F)F)cc4)CC3)cc2o1 [Compound 3-3, N-(1-(pyridin-4-ylmethyl)piperidin-4-yl)-6-(1-(4-(trifluoromethyl)phenyl)piperidin-4-yloxy)benzo[d]oxazole-2-carboxamide]
